# Assay results taken from article PMC6222706, “Evaluation of the Antioxidant and Neuroprotectant Activities of New Asymmetrical 1,3-Diketones” (Molecules : A Journal of Synthetic Chemistry and Natural …, 2018).
# Tests used:
# [1] = Kinetic solubility by UV spectrometry in 10 mM PBS; assay type: physicochemical; conditions: 10 mM phosphate buffered saline, aqueous buffer, kinetic from dmso stock
# Experimental: Among the most important physicochemical parameters in drug-discovery, solubility and chemical stability in aqueous media are the determinants for non-toxic and brain-permeable drug-like compounds with good bioavailability. So, compounds with good aqueous solubility are the best candidates for drug-discovery progression. […] The assays were performed at room temperature, in 10 mM Phosphate Buffered Saline (PBS) from compound stocks in DMSO at 20 mM concentration.
# A modified protocol was used from that described by Hoelke et al. for the determination of the kinetic solubility from DMSO compound solutions. A compound calibration curve (compound concentration vs. UV absorption) was prepared on a 48 well plate for each compound with concentrations in the range of 10 µM to […]. Each compound dilution was carried out by pipetting defined volumes of a 20 mM stock compound solution in DMSO into the wells and adding PBS 10 mM to reach a final volume of 500 µL/well. The final amount of DMSO per well was 2%. For the lower compound concentrations, an additional volume of DMSO was added into each well to reach the 2% of DMSO. Then, 200 µL of each dilution was transferred to a new 96 well plate for the measurement of the UV-spectra. One well in each row was left without compound as a blank and its UV absorbance was used as an offset correction. The experiments were carried out by duplicate.
# In parallel compound saturation solutions were obtained and filtered from 20 mM compound stock in DMSO. So, 10 µL of 20 mM stock solution were dispensed to 190 µL of PBS 10 mM. The solutions were mixed, shaken in a microplate shaker for two hours, and then 160 µL of each solution were filtered and transferred to a new well plate for UV absorption measure. The compound stability in PBS 10 mM was determined at 24, 48 and 72 h with solutions prepared as those for the compound calibration curve.
# Measurement of the UV-spectra was performed using a Varioskan microplate reader and spectra were taken in the range of 270–600 nm. Spectral bandwidth was set to 5 nm and the data pint interval was 10 nm. […]
# [2] = Iron chelation capacity (Fe^+2-ferrozine complex); assay type: biochemical; conditions: aqueous media; for Fe^2+ binding capacity: 50 µM compound; for Fe^2+ chelating capacity: 200 µM compound
# Experimental: To decrease the level of free Fe^2+ that can reduce H2O2 to the ^•OH radical and produce other ROS, it is worth to evaluate the iron chelation capacity of new potential AOX compounds as potential new therapeutic agents against neurodegenerative diseases. […] In this assay ferrozine form complexes with Fe^+2 in a quantitative manner, and in the presence of chelating compounds this complex is disrupted.
# The iron chelation capacity was determined according to the method of Dinis et al., using ferrous chloride instead of ferrous sulfate. In this method, ferrozine can form complexes with a ferrous ion in a quantitative way yielding a red color with maximum absorbance at 562 nm. In the presence of other iron chelators, a decoloration is observed due to the competition with ferrozine for the metal. The assay was carried out in a 96 well plate. Serial dilutions of test compound (0, 5, 10, 25, 50, 100, 150, 200 µM) were dispensed (180 µL) into each well and then 10 µL of FeCl2 1 mM were added (final FeCl2 concentration, […]). After shaking the plate for 1 min, 10 µL of Ferrozine 2 mM were added. The mixture was shaken thoroughly and left to stand for 20 min at room temperature. The absorbance was measured at 562 nm with a Varioskan microplate reader. […] The compound iron chelation activity was calculated as the percentage of inhibition of the Fe^+2-Ferrozine complex by the formula in Equation (3):%Inhibition = {(Ao − As)/Ao} × 100(3) where Ao is the absorbance of the control, and As is the absorbance in the presence of the test compound. EDTA was used as a positive control. All the experiments were performed three times by quadruplicate for each compound concentration.
# SH-SY5Y cells [3] = assay: SH-SY5Y neuroprotection assay against H2O2 (MTT); assay type: cell-based, human; conditions: compound 5-50 µM for 24 h, then 200 µM H2O2 for 24 h
# Experimental: For neuroprotection experiments, SH-SY5Y cells were treated with test compound at different concentrations (5, 10, 20, 30, 40, and 50 µM) for 24 h. After the incubation period, cells were exposed to H2O2 200 µM for 24 h. At the end of the treatment, cell viability was measure with MTT.
# Compound neuroprotection under H2O2-induced oxidative stress was assessed by MTT assay. Briefly, SH-SY5Y were seeded into 96-well plates at a density of 3 × 10^3 cells/well and grown in the incubator for 24 h. Cells were pretreated for 24 h with different compound concentrations (5, 10, 20, 30, 40, 50 µM). After the treatment period, cells were exposed to 200 µM H2O2 for 24 h. Cell viability was measured with MTT following the same procedure described above. Cell viability was expressed as the percentage of the control value (cells without treatment with H2O2).
# SH-SY5Y cells [4] = assay: Mitochondrial membrane potential (JC-1, microplate reader) in SH-SY5Y cells under H2O2; assay type: cell-based, human; conditions: SH-SY5Y, compound at different concentrations for 24 h, then 200 µM H2O2 for 24 h, JC-1
# Experimental: To know whether β-diketones 6b and 7b will protect the mitochondrial membrane from depolarization under oxidative stress conditions, MMP experiments were carried out with the cationic dye JC-1 (5,5′,6,6′-tetrachloro-1,1′,3,3′-tetraethylbenzimi-dazolylcarbocyanine iodide). JC-1 enters selectively into mitochondria and reversibly change color from red to green as the membrane potential decrease. In healthy cells, JC-1 forms red fluorescent J-aggregates while in apoptotic cells with low MMP, JC-1 remains as monomers with green fluorescence. The ratio of J-aggregates to J-monomers is an indication of healthy non-apoptotic cells.
# The fluorescent dye 5,5′,6,6′-tetrachloro-1,1′,3,3′-tetraethylbenzimidazolylcarbocyanine iodide (JC-1) was used for measuring MMP [111]. A decrease in fluorescence intensity represents mitochondrial membrane depolarization. For fluorescence ratio detection under oxidative stress conditions, 96 well plates were seeded with 3 × 10^3 SH-SY5Y cells and after 24 h incubation they were treated with test compound and left out for 24 h. Then, cells were exposed to different H2O2 concentrations for 24 h. After the incubation period, cells were washed twice with Hanks buffer and then stained with 5 µM JC-1 in culture media in dark, in a CO2 incubator at 37 °C for 20 min. At the end of the dye incubation period, cells were washed three times with Hanks buffer and 200 µL of fresh buffer was added. Cells were analyzed with a Varioskan microplate reader. J-aggregates red fluorescence intensity was measured at 535 nm excitation and 595 nm emission wavelength, while excitation at 485 nm and emission 535 nm wavelength was used for J-monomers green fluorescence. Results were expressed as the ratio of fluorescence intensity of J-aggregates to J-monomers. […] JC-1 aggregates show red fluorescence (peak emission at 590 nm) measured in the FL2 channel. Thus, healthy non-apoptotic cells are detected in both FL1 and FL2 channels, while cells with disrupted mitochondrial function show fluorescence in FL1 channel but reduced FL2 intensity.
solubility at 2 h [1],SMILES,Fe^2+ binding capacity [2],Fe^2+ chelating capacity [2],Cell viability after H2O2 (neuroprotection) (SH-SY5Y cells [3]),MMP recovery (SH-SY5Y cells [4])
281 ± 9 µg/mL,"O=C(/C=C(O)/C=C/c1cc(F)c(O)cc1F)C(F)(F)F [Compound 6b, (3Z,5E)-6-(2,5-difluoro-4-hydroxyphenyl)-1,1,1-trifluoro-4-hydroxyhexa-3,5-dien-2-one]",7–8%,25–26%,significantly improved,18–25%
298 ± 7 µg/mL,"O=C(/C=C(O)/C=C/c1ccc(O)c(F)c1F)C(F)(F)F [Compound 7b, (3Z,5E)-6-(2,3-Difluoro-4-hydroxyphenyl)-1,1,1-trifluoro-4-hydroxyhexa-3,5-dien-2-one]",7–8%,25–26%,significantly improved,18–25%
